Reference: patent US12630523B2, “Isoquinoline derivatives for use as antiviral and antitumour agents” (priority 2021, dated 2026)

test system: CaSki (ATCC CRM-CRL-1550); test: Monolayer assay using Sulphorhodamine B (SRB) staining, CaSki; format: cell-based; settings: Homo sapiens, Ca-Ski, read-out: EC50 mean [nM]
Procedure: Various cell culture cells grown as monolayers are harvested from exponential growing cultures after treatment with various OC compounds at different concentrations. For this depending on the cell line, 10.000 to 30.000 cells were plated in 96-well flat-bottom microtiter plates. After a 24 h recovery period to allow cells to resume exponential growth, supernatants are discarded and 100 μl of culture medium (eight control wells/plate) or culture medium with the test compound are added by a liquid handling robotic system (Microlab® Starlet, Hamilton) and treatment continued for 72 hrs. Compounds are applied at 9 concentrations and eight wells/concentration). At least three independent experiments are performed. For SRB staining, cells are fixed with SRB01 (Tab. 5) for 1 h at 4° C. (final concentration of TCA=10%) washed with a plate washer (Hydroflex, Tecan©) for five times with H2O; and stained with 100 μl of SRB02 at room temperature for 10 min following 4 washes in SRB03 and finally 100 μl of developer solution SRB04 for 5 minutes with shaking. Optical density is assessed using a plate-reader (Sunrise, Tecan©) at 540 nm.
Concentrations required for half maximal response of the compound for cell growth inhibition (EC50) is calculated by non-linear regression (log[conc. of inhibitor] versus response (% T/C)) using the analysis software GraphPad Prism®, Prism 5 for windows, version 5.01 (GraphPad Software Inc., CA).

Going from Cc1ccc(CN2C(=O)c3ccccc3[C@@H](C(=O)Nc3cccc(N4CCOCC4)c3)[C@@H]2c2ccc(C(F)(F)F)cc2)cc1 (relative stereo) [OC973] to CN1CCN(c2cccc(NC(=O)[C@@H]3c4ccccc4C(=O)N(Cc4ccncc4)[C@H]3c3ccc(C(F)(F)F)cc3)c2)CC1 (relative stereo) [OC975], the EC50 falls from 6720 nM to 4340 nM (1.5-fold).

test system: CaSki cells; test: Cell cycle analysis using Propidium-Iodide staining (flow cytometry); format: cell-based, human; settings: 48 hour incubation, 5 μM, no treatment 15.0
Procedure: Propidium-Iodide (PI) DNA staining is performed to facilitate cell cycle analysis. For PI-DNA staining, fixed cells and eventually antibody-stained cells are resuspended in 450 μl of PBS (per 10^6 cells) and incubated with 100 μg/ml RNase (stock 1 mg/ml, in PBS) for 10 minutes at 37° C. Cells are then incubated with 5 μg/106 cells of PI (stock 1 mg/ml in PBS) for 10 minutes at room temperature. Samples are stored at 4° C. until CF analysis.
CaSki cells were incubated with various compounds and cell cycle distribution of the cells was assessed using Propidium-Iodide staining.
In order to analyze the cytostatic versus the cytotoxic effect of OC compounds, cell cycle profiles were analyzed in vitro after 48 hour incubations using Flow Cytometry as a read out. For this a cell cycle analysis from selected OC E7 degrader compounds was conducted in CaSki cells. Using 6 well plates, 1.5×10^5 cells were seeded for each well and grown over night at 37° C. 5% CO2. For analysis of the cell cycle behavior, cells were analyzed in the presence of propidium Iodide (PI^−) by flow cytometry (FC). Briefly, cells were detached by trypsin digestion, all supernatants were included in the analysis, and fixed with 70% ice cold ethanol and stored at 4° C. until FC analysis using PI^− staining (1 mg/ml). At least 7000 events were acquired for each sample.

First: Cc1ccc(CN2C(=O)c3ccccc3[C@@H](C(=O)Nc3cccc(N4CCOCC4)c3)[C@@H]2c2ccc(C(F)(F)F)cc2)cc1 (relative stereo) [OC973]
Second: CN1CCN(c2cccc(NC(=O)[C@@H]3c4ccccc4C(=O)N(Cc4ccncc4)[C@H]3c3ccc(C(F)(F)F)cc3)c2)CC1 (relative stereo) [OC975]
The “A*/5 μM (apoptosis as measured from total SUB G1 content)” value of the first is lower: 11.1% for the first, 13.9% for the second.

same assay, conditions: 48 hour incubation, 10 μM, no treatment 15.0

Compared with Cc1ccc(CN2C(=O)c3ccccc3[C@@H](C(=O)Nc3cccc(N4CCOCC4)c3)[C@@H]2c2ccc(C(F)(F)F)cc2)cc1 (relative stereo) [OC973], CN1CCN(c2cccc(NC(=O)[C@@H]3c4ccccc4C(=O)N(Cc4ccncc4)[C@H]3c3ccc(C(F)(F)F)cc3)c2)CC1 (relative stereo) [OC975] is lower in “A*/10 μM (apoptosis as measured from total SUB G1 content)” value: 13.0% for the first, 11.8% for the second.

same assay, conditions: cell cycle distribution, 48 hour incubation, 5 μM, no treatment 15.6

Compared with Cc1ccc(CN2C(=O)c3ccccc3[C@@H](C(=O)Nc3cccc(N4CCOCC4)c3)[C@@H]2c2ccc(C(F)(F)F)cc2)cc1 (relative stereo) [OC973], CN1CCN(c2cccc(NC(=O)[C@@H]3c4ccccc4C(=O)N(Cc4ccncc4)[C@H]3c3ccc(C(F)(F)F)cc3)c2)CC1 (relative stereo) [OC975] is lower in “G2/5 μM” value: 17.6% for the first, 10.4% for the second.

same assay, conditions: cell cycle distribution, 48 hour incubation, 5 μM, no treatment 53.3

Compared with Cc1ccc(CN2C(=O)c3ccccc3[C@@H](C(=O)Nc3cccc(N4CCOCC4)c3)[C@@H]2c2ccc(C(F)(F)F)cc2)cc1 (relative stereo) [OC973], CN1CCN(c2cccc(NC(=O)[C@@H]3c4ccccc4C(=O)N(Cc4ccncc4)[C@H]3c3ccc(C(F)(F)F)cc3)c2)CC1 (relative stereo) [OC975] is lower in “G1/5 μM” value: 52.1% for the first, 49.9% for the second.

same assay, conditions: cell cycle distribution, 48 hour incubation, 10 μM, no treatment 15.6

Going from Cc1ccc(CN2C(=O)c3ccccc3[C@@H](C(=O)Nc3cccc(N4CCOCC4)c3)[C@@H]2c2ccc(C(F)(F)F)cc2)cc1 (relative stereo) [OC973] to CN1CCN(c2cccc(NC(=O)[C@@H]3c4ccccc4C(=O)N(Cc4ccncc4)[C@H]3c3ccc(C(F)(F)F)cc3)c2)CC1 (relative stereo) [OC975], the “G2/10 μM” value falls from 11.5% to 10.5%.

same assay, conditions: cell cycle distribution, 48 hour incubation, 10 μM, no treatment 53.3

First: Cc1ccc(CN2C(=O)c3ccccc3[C@@H](C(=O)Nc3cccc(N4CCOCC4)c3)[C@@H]2c2ccc(C(F)(F)F)cc2)cc1 (relative stereo) [OC973]
Second: CN1CCN(c2cccc(NC(=O)[C@@H]3c4ccccc4C(=O)N(Cc4ccncc4)[C@H]3c3ccc(C(F)(F)F)cc3)c2)CC1 (relative stereo) [OC975]
The “G1/10 μM” value of the first is higher: 52.6% for the first, 51.4% for the second.

test system: SARS-CoV-2 isolate BetaCov/Belgium/GHB-03021/2020; test: microbe, parasite or virus in culture; format: cell-based; settings: Severe acute respiratory syndrome coronavirus 2; 1.25 μM (non-toxic compound concentration), n4

First: Cc1ccc(CN2C(=O)c3ccccc3[C@@H](C(=O)Nc3cccc(N4CCOCC4)c3)[C@@H]2c2ccc(C(F)(F)F)cc2)cc1 (relative stereo) [OC973]
Second: CN1CCN(c2cccc(NC(=O)[C@@H]3c4ccccc4C(=O)N(Cc4ccncc4)[C@H]3c3ccc(C(F)(F)F)cc3)c2)CC1 (relative stereo) [OC975]
The inhibition at 1.25 µM of the first is higher: 0.95% for the first, 0.17% for the second.

target: T1, HPV16 E7 protein (Human papillomavirus type 16, UniProt P03129); test: not given; format: cell-based; settings: CaSki cells; adjusted degradation, CHX steady state set to 100% degradation
T1 construct: endogenous in cells; host or cells: CaSki cells (HPV16-positive cervical carcinoma)
T1 sequence (P03129 whole entry): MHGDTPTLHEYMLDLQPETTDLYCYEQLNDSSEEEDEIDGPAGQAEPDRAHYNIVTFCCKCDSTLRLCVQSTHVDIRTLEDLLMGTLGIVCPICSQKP
Procedure: For intracellular antibody labeling, 0.5×10^6 cells are washed once with 1 ml ice-cold PBS. Cells are centrifuged at 350×g for 5 minutes at 4° C. and then fixed in 1% paraformaldehyde (1 ml/10^6 cells) for 20 minutes at 4° C. Cells are washed with 1 ml ice-cold PBS and centrifuged at 350×g for 5 minutes at 4° C. To permeabilize cells, 100% ice-cold methanol (1 ml/10^6 cells) is added to the cells and incubated for 20 minutes at 4° C. followed by centrifugation at 350×g for 5 minutes at 4° C. Cells are washed with 1 ml ice-cold PBS, centrifuged at 350×g for 5 minutes at 4° C. and resuspended in 0.1% saponin+2% FBS in PBS (ice-cold). Cells are left for 20-30 minutes at room temperature to reduce the background signal and then centrifuged at 350×g for 5 minutes at 4° C. The primary antibody (mAb_HPV16E7-1 (VS13004); concentration 1 μg/μl) is diluted in 0.1% saponin+2% FBS (dilution 0.25 μg/50 μl of incubation buffer per 1×10^6 cells (5 ng/μl)). Cells are incubated with primary antibody for 30 minutes at room temperature, washed with 0.1% saponin+2% FBS and centrifuged at 350×g for 5 minutes at 4° C. The secondary antibody (FITC conjugated goat anti-mouse IgG1-IgM, BD, cat. #555988) is diluted in 0.1% saponin+2% FBS (dilution 1:50). Cells are incubated with secondary antibody for 30 minutes at room temperature, washed once with 0.1% saponin+2% FBS, once with PBS and centrifuged at 350×g for 5 minutes at 4° C.
Cells are resuspended in 700 μl PBS prior to CF analysis with a Beckman Coulter FC 500 MPL, (excitation laser 488 nm). Data analysis is done using the Beckman Coulter software packages MXP for acquisition and CXP for data analysis which includes MFI calculation. Detection of HPV-E7 protein expression is based on morphology back-gating of FL1 histogram (logarithmic scale) with gating for dot plot FS (Forward Scatter) log/SS (Sideward Scatter) log and gating for histograms SS log.
In order to define the level of E7 protein expression and to study the extent of E7 protein steady state level reduction in E7 expressing cells in the presence of various compounds, FC analysis is implemented using the intracellular antibody labeling procedure for monoclonal antibodies to HPV E7. E7 signal intensities are analyzed from the obtained FL1 histograms at logarithmic scale. The FL1 single histogram graph represents the variation in the mean fluorescence intensity (MFI) channel for cells treated with selected compounds compared to cells not incubated with primary antibodies but incubated with secondary, which allows to test for auto-fluorescence, and non-compound treated cells as controls. Non-primary antibody-stained cells are used to set the acquisition parameters to zero. Decrease of the mean fluorescence intensity channel corresponds to a decrease in the expression of HPV16 E7 protein. Degradation of E7 in cells is calculated as percent (%) reduction in MFI(x-Me) using the following formulas: % Drel=(T−C)/T*100; i) relative degradation: % Dad=(T−C)/(T−CHX)*100; ii) adjusted degradation: • Drel=relative degradation, • Dad=adjusted degradation assuming CHX % Drel=100; • T=MFI of non-treated cells; • C=MFI of compound treated cells; • CH=MFI of cycloheximide (CHX) treated cells;
For comparison within one experiment i) the % relative degradation (Drel) is sufficient, whereas for comparison between two or more experiments ii) the adjusted degradation (Dad) is used and CHX steady state is set to a 100% degradation parameter.
1×10^6 freshly seeded CaSki cells (ATCC CRL-7915), are grown in 10 cm diameter cell culture dishes in RPMI1640, 10% FCS medium at 37° C. 5% CO2 overnight and then incubated in the presence of 10 μM Cycloheximide (CHX) 10 μM OC246 or with vehicle alone for four hours at 37° C. 5% CO2. Following this E7 protein is assessed by cytofluorimetric analysis using intracellular HPV16 E7 antibody labeling. […]

Compared with Cc1ccc(CN2C(=O)c3ccccc3[C@@H](C(=O)Nc3cccc(N4CCOCC4)c3)[C@@H]2c2ccc(C(F)(F)F)cc2)cc1 (relative stereo) [OC973], CN1CCN(c2cccc(NC(=O)[C@@H]3c4ccccc4C(=O)N(Cc4ccncc4)[C@H]3c3ccc(C(F)(F)F)cc3)c2)CC1 (relative stereo) [OC975] is higher in “% Dad” value: 20% for the first, 67% for the second.
